Results published in patent US20250073223A1, “TARGETED NANOCARRIERS FOR SYSTEMIC DELIVERY OF IRAK4 INHIBITORS TO INFLAMED TISSUES” (Oregon State University, priority 2023, published 2025).

Tests used:
[1] = test system: mice with DSS-induced colitis; experiment: DSS-induced colitis efficacy (colon length, body weight, colon damage); type: in vivo, C57BL/6 mice
Method: To evaluate the anti-inflammatory action of the developed VCAM1-IRAK4 NC, mice were administered with 5% DSS in drinking water for 7 days and injected IV with the VCAM1-targeted nanocarriers loaded with IRAK4 inhibitor (23 mg kg^−1) on day 0, 2, 4, and 6 of DSS treatment initiation (Y. Lec, K. Sugihara, M. G. Gillilland, 3rd, S. Jon, N. Kamada, J. J. Moon, Nat. Mater. 2020, 19, 118). […] A healthy control group without DSS administration and a DSS-induced colitis group without the injection of VCAM1-IRAK4 NC were also prepared. […] Pharmacother. 2022, 153, 113459).
In vivo evaluation of VCAM1-IRAK4 NC in mice with DSS-induced colitis. […] To evaluate the accumulation of VCAM1-targeted nanocarriers in inflamed tissue, the shaved mice with induced colitis were injected IV with SiNc-loaded IRAK4 NC and VCAM1-IRAK4 NC, and NIR fluorescence images of the excised colons and major organs were recorded 24 hours post-administration. The fluorescence images were obtained using a Pearl Impulse fluorescence imaging system (LI-COR, Lincoln, NE) and the mean fluorescence intensity of region of interest was obtained using Pearl Impulse Software (LI-COR, Lincoln, NE). […] Colon length without the cecum was measured, and colon tissues were gently washed with PBS. […] NucBlue™ Fixed Cell ReadyProbes™ Reagent (ThermoFisher Scientific, Waltham, MA, USA) was used to stain the nuclei. […]

[2] = cited from earlier work

**Q.** What does the source list for `CC[C@@H]1[C@H](F)C(=O)N[C@@H]1COc1nccc2cc(C(N)=O)c(OC)cc12` [PF-06650833, zimlovisertib]?
**A.** average colon length ([1]; free drug in 60% saline, 30% PEG400, 10% DMSO, 23 mg kg^−1, 4 IV injections, healthy 5.97±0.18, DSS saline 4.87±0.12 (FIG. 15A)): 4.74±0.35 cm; therapeutic effect on colitis ([1]; free drug, 23 mg kg^−1, 4 IV injections every 2 days): no noticeable therapeutic effect; absolute oral bioavailability ([2]; oral): low; dose-limiting side effects ([2]; two phase I clinical trials): no dose-limiting side effects were observed; tolerability ([2]; two phase I clinical trials): well tolerated
